# Active and inactive are the calls of the source. No cut-off for these calls is given here.
# Assays:
# Cell membrane [1] = experiment: Induction of inner membrane disruption in […] assessed as change in fluorescence intensity at 8 times MIC by DISC3-5 dye based fluorescence analysis; type: subcellular
# Escherichia coli [2] = experiment: Antibacterial activity against Escherichia coli NCTC 10418 incubated for 16 hrs under shaking condition by standard broth microdilution method; type: functional
# [3] = Hemolytic activity at horse Erythrocyte assessed as hemolysis; type: toxicity, cell-based, Equus caballus; details: horse erythrocytes
# [4] = Hemolytic activity at mouse Red blood cell assessed as hemolysis; type: toxicity, cell-based; details: erythrocyte
# Cell membrane [5] = experiment: Disruption of cell membrane integrity in Staphylococcus aureus assessed as reduction in green to red fluorescence by STYO 9 and PI staining based confocal microscopy analysis; type: subcellular
# Cell membrane [6] = experiment: Disruption of cell membrane integrity in methicillin-resistant Staphylococcus aureus assessed as reduction in green to red fluorescence by STYO 9 and PI staining based confocal microscopy analysis; type: subcellular
# Staphylococcus aureus [7] = experiment: Antibacterial activity against methicillin-resistant Staphylococcus aureus ATCC 43300 incubated for 16 hrs under shaking condition by standard broth microdilution method; type: functional
# Staphylococcus aureus [8] = experiment: Antibacterial activity against Staphylococcus aureus NCTC 10788 incubated for 16 hrs under shaking condition by standard broth microdilution method; type: functional
# Cell membrane [9] = experiment: Induction of inner membrane disruption in Pseudomonas aeruginosa assessed as fluorescence intensity at 8 times MIC by DISC3-5 dye based fluorescence analysis; type: subcellular
# Pseudomonas aeruginosa [10] = experiment: Antibacterial activity against Pseudomonas aeruginosa ATCC 27853 incubated for 16 hrs under shaking condition by standard broth microdilution method; type: functional
# Cell membrane [11] = experiment: Induction of cytoplasmic membrane depolarization in Pseudomonas aeruginosa assessed as change in fluorescence intensity by DISC3-5 dye based fluorescence analysis; type: subcellular
# Cell membrane [12] = experiment: Induction of cytoplasmic membrane depolarization in […] assessed as increase in fluorescence intensity by DISC3-5 dye based fluorescence analysis; type: subcellular
# Cell membrane [13] = experiment: Induction of cytoplasmic membrane depolarization in […] assessed as change in fluorescence intensity by DISC3-5 dye based fluorescence analysis; type: subcellular
# Staphylococcus aureus [14] = experiment: Antibacterial activity against Staphylococcus aureus incubated for 16 hrs under shaking condition in presence of LPS by standard broth microdilution method; type: functional, organism-based
# Escherichia coli [15] = experiment: Antibacterial activity against Escherichia coli infected in skin wound infection ICR mouse model assessed as reduction in wound area at 40 ug measured after 7 days by photographic analysis; type: functional; parameters: scale not given: the % may be the effect or the level left; details: dose 40 µg; time 7 day
# Escherichia coli [16] = experiment: Antibacterial activity against Escherichia coli CMCC 44102 incubated for 16 hrs under shaking condition by standard broth microdilution method; type: functional
# Escherichia coli [17] = experiment: Antibacterial activity against Escherichia coli ATCC 25922 incubated for 16 hrs under shaking condition by standard broth microdilution method; type: functional
# Cell membrane [18] = experiment: Disruption of cell membrane integrity in Escherichia coli assessed as increase in red fluorescence intensity at 0.5 times MIC by STYO 9 and PI staining based confocal microscopy analysis; type: subcellular
# Escherichia coli [19] = experiment: Antibacterial activity against Escherichia coli infected in skin wound infection ICR mouse model assessed as wound scabbing at 20 ug measured after 5 days by photographic analysis; type: functional, organism-based; details: dose 20.0 µg, time 5.0 day
# Cell membrane [20] = experiment: Induction of cytoplasmic membrane depolarization in Pseudomonas aeruginosa by DISC3-5 dye based fluorescence analysis; type: subcellular
# Pseudomonas aeruginosa [21] = experiment: Antibacterial activity against Pseudomonas aeruginosa TL 11004 incubated for 16 hrs under shaking condition by standard broth microdilution method; type: functional
# Escherichia coli [22] = experiment: Antibacterial activity against Escherichia coli infected in skin wound infection ICR mouse model assessed as reduction in wound area at 20 ug measured after 7 days by photographic analysis; type: functional; parameters: scale not given: the % may be the effect or the level left; details: dose 20 µg; time 7 day
# Lipopolysaccharide (LPS) [23] = experiment: Disaggregation of FITC-labeled Escherichia coli LPS assessed as fluorescence intensity at 0.1 uM measured for 30 mins relative to control
# Cell membrane [24] = experiment: Induction of cell membrane depolarization in Pseudomonas aeruginosa assessed as fluorescence intensity by DISC3-5 dye based fluorescence analysis; type: subcellular
# Lipopolysaccharide (LPS) [25] = experiment: Disaggregation of FITC-labeled Escherichia coli LPS assessed as change in fluorescence intensity measured for 30 mins; details: dose 0.1-10 µM
# Pseudomonas aeruginosa [26] = experiment: Antibacterial activity against Pseudomonas aeruginosa TL 11001 incubated for 16 hrs under shaking condition by standard broth microdilution method; type: functional
# Escherichia coli [27] = experiment: Antibacterial activity against Escherichia coli DC 29755 incubated for 16 hrs under shaking condition by standard broth microdilution method; type: functional
# Cell membrane [28] = experiment: Induction of cytoplasmic membrane depolarization in Pseudomonas aeruginosa assessed as change in fluorescence intensity in protoplast by DISC3-5 dye based fluorescence analysis; type: subcellular
# Klebsiella pneumoniae = experiment: Antibacterial activity against Klebsiella pneumoniae FK 16298 incubated for 16 hrs under shaking condition by standard broth microdilution method; type: functional
# Staphylococcus aureus [29] = experiment: Antibacterial activity against Staphylococcus aureus incubated for 60 mins in presence of LPS; type: functional, organism-based
# Escherichia coli [30] = experiment: Antibacterial activity against Escherichia coli infected in skin wound infection ICR mouse model assessed as wound scabbing at 40 ug measured after 3 days by photographic analysis; type: functional, organism-based; details: dose 40.0 µg, time 3.0 day
# Lipopolysaccharide (LPS) [31] = experiment: Binding affinity to LPS (unknown origin) at 4 microg/ml relative to control; details: dose 4.0 µg/ml
# Cell membrane [32] = experiment: Induction of outer membrane permeability in Pseudomonas aeruginosa assessed as fluorescence intensity by 1-N-Nphenylnaphthylamine fluorescent probe based analysis; type: subcellular
# Lipopolysaccharide (LPS) [33] = experiment: Disaggregation of FITC-labeled Escherichia coli LPS assessed as change in fluorescence intensity at 0.01 to 100 uM measured for 30 mins; details: dose 0.01-100 µM
# Pseudomonas aeruginosa [34] = experiment: Antibacterial activity against Pseudomonas aeruginosa TL 11005 incubated for 16 hrs under shaking condition by standard broth microdilution method; type: functional
# Lipopolysaccharide (LPS) [35] = experiment: Binding affinity to LPS (unknown origin) assessed as dissociation constant by MST analysis
# Cell membrane [36] = experiment: Disruption of cell membrane integrity in Staphylococcus aureus assessed as increase in red fluorescence intensity at 0.5 times MIC by STYO 9 and PI staining based confocal microscopy analysis; type: subcellular
# Lipopolysaccharide (LPS) [37] = experiment: Disaggregation of FITC-labeled Escherichia coli LPS assessed as fluorescence intensity at 1 uM measured for 30 mins relative to control
# Lipid bilayer = experiment: Disruption of membrane integrity in bacterial cell membrane mimic POPC/POPG LUVs assessed as calcein leakage measured for 30 mins by fluorescence based analysis
# Lipopolysaccharide (LPS) [38] = experiment: Disaggregation of FITC-labeled Escherichia coli LPS assessed as fluorescence intensity at 0.01 uM measured for 30 mins relative to control
substance,measurement,setting,value
Ac-AARILSRILRFALRVL-NH2,Activity,Cell membrane [1],Active
same,MIC,Escherichia coli [2],> 512 µg/mL
same,HC50,[3],34.2 µg/mL
same,MHC,[4],34.197 µg/mL
same,Activity,Cell membrane [5],Active
same,Activity,Cell membrane [6],Active
same,MIC,Staphylococcus aureus [7],16 µg/mL
same,MIC,Staphylococcus aureus [8],32 µg/mL
same,Flu intensity,Cell membrane [9],2410
same,MIC,Pseudomonas aeruginosa [10],> 512 µg/mL
Ac-AARILSRILRRALRVL-NH2,Activity,Cell membrane [1],Active
same,Activity,Cell membrane [11],Active
same,MIC,Escherichia coli [2],4 µg/mL
same,HC50,[3],155 µg/mL
same,MHC,[4],155 µg/mL
same,Activity,Cell membrane [5],Active
same,Activity,Cell membrane [6],Active
same,MIC,Staphylococcus aureus [7],16 µg/mL
same,Activity,Cell membrane [12],Active
same,Activity,Cell membrane [13],Active
same,MIC,Staphylococcus aureus [8],4 µg/mL
same,Flu intensity,Cell membrane [9],2300
same,MIC,Pseudomonas aeruginosa [10],8 µg/mL
Ac-AARILSRILRFFLRVL-NH2,MIC,Escherichia coli [2],256 µg/mL
same,HC50,[3],13.4 µg/mL
same,MHC,[4],13.37 µg/mL
same,MIC,Staphylococcus aureus [7],128 µg/mL
same,MIC,Staphylococcus aureus [8],128 µg/mL
same,MIC,Pseudomonas aeruginosa [10],> 512 µg/mL
Ac-AARILSRILSGALRVL-NH2,MIC,Escherichia coli [2],16 µg/mL
same,HC50,[3],161 µg/mL
same,MHC,[4],161 µg/mL
same,MIC,Staphylococcus aureus [7],4 µg/mL
same,Activity,Cell membrane [12],Active
same,MIC,Staphylococcus aureus [8],4 µg/mL
same,MIC,Pseudomonas aeruginosa [10],64 µg/mL
Ac-AARILSRILRGALRVL-NH2,MIC,Escherichia coli [2],32 µg/mL
same,HC50,[3],403 µg/mL
same,MHC,[4],403 µg/mL
same,MIC,Staphylococcus aureus [7],8 µg/mL
same,MIC,Staphylococcus aureus [8],4 µg/mL
same,MIC,Pseudomonas aeruginosa [10],16 µg/mL
Ac-AARIPSRILFRALRVL-NH2,MIC,Escherichia coli [2],32 µg/mL
same,HC50,[3],> 512 µg/mL
same,MHC,[4],> 512 µg/mL
same,MIC,Staphylococcus aureus [7],16 µg/mL
same,Activity,Cell membrane [12],Active
same,MIC,Staphylococcus aureus [8],32 µg/mL
same,MIC,Pseudomonas aeruginosa [10],64 µg/mL
Ac-AAKILSKILKGALKVL-NH2,MIC,Escherichia coli [2],8 µg/mL
same,HC50,[3],442 µg/mL
same,MHC,[4],442 µg/mL
same,MIC,Staphylococcus aureus [7],4 µg/mL
same,MIC,Staphylococcus aureus [8],8 µg/mL
same,MIC,Pseudomonas aeruginosa [10],16 µg/mL
Ac-AARIFSRILRGALRVL-NH2,MIC,Escherichia coli [2],8 µg/mL
same,HC50,[3],179 µg/mL
same,MHC,[4],179 µg/mL
same,MIC,Staphylococcus aureus [7],8 µg/mL
same,MIC,Staphylococcus aureus [8],4 µg/mL
same,MIC,Pseudomonas aeruginosa [10],16 µg/mL
Ac-AARIPSRILFFALVRL-NH2,MIC,Escherichia coli [2],64 µg/mL
same,HC50,[3],> 512 µg/mL
same,MHC,[4],> 512 µg/mL
same,MIC,Staphylococcus aureus [7],16 µg/mL
same,Activity,Cell membrane [12],Active
same,MIC,Staphylococcus aureus [8],16 µg/mL
same,MIC,Pseudomonas aeruginosa [10],> 512 µg/mL
Ac-AARILSRILFGALRVL-NH2,MIC,Escherichia coli [2],32 µg/mL
same,HC50,[3],51.7 µg/mL
same,MHC,[4],51.663 µg/mL
same,MIC,Staphylococcus aureus [7],8 µg/mL
same,MIC,Staphylococcus aureus [8],8 µg/mL
same,MIC,Pseudomonas aeruginosa [10],32 µg/mL
Ac-AARIPSRILKGALRVL-NH2,MIC,Escherichia coli [2],128 µg/mL
same,HC50,[3],> 512 µg/mL
same,MHC,[4],> 512 µg/mL
same,MIC,Staphylococcus aureus [7],256 µg/mL
same,MIC,Staphylococcus aureus [8],512 µg/mL
same,MIC,Pseudomonas aeruginosa [10],64 µg/mL
Ac-AARIPSRILRGALRVL-NH2,Activity,Staphylococcus aureus [14],Active
same,Activity,Escherichia coli [15],44.8%
same,MIC,Escherichia coli [16],32 µg/mL
same,MIC,Escherichia coli [17],64 µg/mL
same,Activity,Cell membrane [18],Active
same,Activity,Escherichia coli [19],Active
same,Activity,Cell membrane [20],Active
same,MIC,Pseudomonas aeruginosa [21],128 µg/mL
same,Activity,Escherichia coli [22],32.5%
same,Activity,Cell membrane [11],Active
same,MIC,Escherichia coli [2],16 µg/mL
same,Flu intensity,Lipopolysaccharide (LPS) [23],21.5
same,HC50,[3],> 512 µg/mL
same,MHC,[4],> 512 µg/mL
same,Flu intensity,Cell membrane [24],781
same,Activity,Lipopolysaccharide (LPS) [25],Dose-dependent-effect
same,Activity,Cell membrane [5],Active
same,Activity,Cell membrane [6],Active
same,MIC,Pseudomonas aeruginosa [26],512 µg/mL
same,MIC,Staphylococcus aureus [7],128 µg/mL
same,MIC,Escherichia coli [27],64 µg/mL
same,Activity,Cell membrane [13],Active
same,MIC,Staphylococcus aureus [8],256 µg/mL
same,Activity,Cell membrane [28],Active
same,MIC,Klebsiella pneumoniae,128 µg/mL
same,Activity,Staphylococcus aureus [29],Dose-dependent-effect
same,Activity,Escherichia coli [30],Active
same,Activity,Lipopolysaccharide (LPS) [31],> 90%
same,Flu intensity,Cell membrane [32],30000
same,Activity,Lipopolysaccharide (LPS) [33],Active
same,MIC,Pseudomonas aeruginosa [34],32 µg/mL
same,Kd,Lipopolysaccharide (LPS) [35],0.152 µM
same,Activity,Cell membrane [36],Active
same,Flu intensity,Lipopolysaccharide (LPS) [37],195
same,MIC,Pseudomonas aeruginosa [10],32 µg/mL
same,Activity,Lipid bilayer,10%
Ac-AARIFSRILFGALRVL-NH2,MIC,Escherichia coli [2],32 µg/mL
same,HC50,[3],110 µg/mL
same,MHC,[4],110 µg/mL
same,MIC,Staphylococcus aureus [7],4 µg/mL
same,MIC,Staphylococcus aureus [8],8 µg/mL
same,MIC,Pseudomonas aeruginosa [10],32 µg/mL
Ac-AARIPSRILFGALRVL-NH2,MIC,Escherichia coli [16],128 µg/mL
same,MIC,Escherichia coli [17],128 µg/mL
same,MIC,Pseudomonas aeruginosa [21],512 µg/mL
same,Activity,Cell membrane [11],Active
same,Flu intensity,Lipopolysaccharide (LPS) [38],-95
same,MIC,Escherichia coli [2],64 µg/mL
same,HC50,[3],> 512 µg/mL
same,MHC,[4],> 512 µg/mL
same,Flu intensity,Cell membrane [24],676
same,MIC,Pseudomonas aeruginosa [26],512 µg/mL
same,MIC,Staphylococcus aureus [7],128 µg/mL
same,MIC,Escherichia coli [27],128 µg/mL
same,Activity,Cell membrane [13],Active
same,MIC,Staphylococcus aureus [8],128 µg/mL
same,MIC,Klebsiella pneumoniae,256 µg/mL
same,Flu intensity,Cell membrane [32],10000
same,MIC,Pseudomonas aeruginosa [34],128 µg/mL
same,Kd,Lipopolysaccharide (LPS) [35],39.1 µM
same,MIC,Pseudomonas aeruginosa [10],256 µg/mL
same,Activity,Lipid bilayer,50.1%

# Source: ChEMBL document CHEMBL6134824, “LPS-enriched interaction drives spectrum conversion in antimicrobial peptides: Design and optimization of AA16 derivatives for targeting gram-negative bacteria” (Eur J Med Chem, 2025)
